# Test results taken from patent US9833497B2, “Human originated EGF domain proteins and use of the same” (CHENGDU SOURCEBIO LIMITED-LIABILITY COMPANY, priority 2013, dated 2017).
# How the values were obtained:
# Assay type in all cases: cell-based
# E. coli DH5α = test: Antibacterial activity: MIC and growth curve against E. coli DH5α in 96-well plate; details: minimal inhibitory concentration against E. coli DH5α; 96-well plate, 5×10^5 CFU/mL, 37° C., judged after 8 h
# Method in brief: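 MIC taken as lowest protein level with no bacterial growth, tracked by A600 every 30 min during 37 °C, 175 rpm culture. Two-fold protein series 50-12.5 μg/mL final, triplicate wells, against 5×10^5 CFU/mL of LB-washed mid-log cells.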
# E. coli BL21 = test: MIC against Gram-negative bacteria: E. coli BL21; details: for MIC against E. coli BL21: 96-well plate, 37° C., 10 h
# Method in brief: (§1)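 LB broth cultures at McFarland 0.5, spun down, resuspended, diluted to 5×10^5 CFU/mL final. Two-fold serial dilutions of purified human EGF domain proteins, triplicate. 37° C, 175 rpm shaking. Endpoint: no visible growth.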
# Pseudomonas aeruginosa = test: MIC against Gram-negative bacteria: Pseudomonas aeruginosa; details: for MIC against P. aeruginosa: 96-well plate, 37° C., 10 h
# Method in brief: as §1
# Klebsiella pneumonia = test: MIC against Gram-negative bacteria: Klebsiella pneumonia; details: for MIC against K. pneumonia: 96-well plate, 37° C., 10 h
# Method in brief: as §1
# Enterobacter cloacae = test: MIC against Gram-negative bacteria: Enterobacter cloacae; details: for MIC against E. cloacae: 96-well plate, 37° C., 10 h
# Method in brief: as §1
# Aeromonas hydrophila = test: MIC against Gram-negative bacteria: Aeromonas hydrophila; details: for MIC against A. hydrophila: 96-well plate, 37° C., 10 h
# Method in brief: as §1
# Citrobacter diversus = test: MIC against Gram-negative bacteria: Citrobacter diversus; details: for MIC against C. diversus: 96-well plate, 37° C., 10 h
# Method in brief: as §1
# Moraxella catarrhalis = test: MIC against Gram-negative bacteria: Moraxella catarrhalis; details: for MIC against M. catarrhalis: 96-well plate, 37° C., 10 h
# Method in brief: as §1
# Proteus mirabilis = test: MIC against Gram-negative bacteria: Proteus mirabilis; details: for MIC against P. mirabilis: 96-well plate, 37° C., 10 h
# Method in brief: as §1
# Proteus vulgaris = test: MIC against Gram-negative bacteria: Proteus vulgaris; details: for MIC against P. vulgaris: 96-well plate, 37° C., 10 h
# Method in brief: as §1
# Serratia marcescens = test: MIC against Gram-negative bacteria: Serratia marcescens; details: for MIC against S. marcescens: 96-well plate, 37° C., 10 h
# Method in brief: as §1
# [1] = E. coli BL21, 10 h cultivation at 37° C.
# [2] = P. aeruginosa, 10 h cultivation at 37° C.
# [3] = K. pneumonia, 10 h cultivation at 37° C.
# [4] = E. cloacae, 10 h cultivation at 37° C.
# [5] = A. hydrophila, 10 h cultivation at 37° C.
# [6] = C. diversus, 10 h cultivation at 37° C.
# [7] = M. catarrhalis, 10 h cultivation at 37° C.
# [8] = P. mirabilis, 10 h cultivation at 37° C.
# [9] = P. vulgaris, 10 h cultivation at 37° C.
# [10] = S. marcescens, 10 h cultivation at 37° C.
substance,measurement,setting,value
PRT1004 (LRPSCADSPCRNRATCQDSPQGPRCLCPTGYTGGSCQ; listed as Homo sapiens),MIC,E. coli DH5α,50 µg/mL
same,MIC,E. coli BL21; [1],100 µg/mL
same,MIC,Pseudomonas aeruginosa; [2],50 µg/mL
same,MIC,Klebsiella pneumonia; [3],12.5 µg/mL
same,MIC,Enterobacter cloacae; [4],50 µg/mL
same,MIC,Aeromonas hydrophila; [5],25 µg/mL
same,MIC,Citrobacter diversus; [6],12.5 µg/mL
same,MIC,Moraxella catarrhalis; [7],25 µg/mL
same,MIC,Proteus mirabilis; [8],50 µg/mL
same,MIC,Proteus vulgaris; [9],25 µg/mL
same,MIC,Serratia marcescens; [10],12.5 µg/mL
PRT498 (CDCNPHGSVHGDCDRTSGQCVCRLGASGLRCDECEPRHILMETDCVS; listed as Homo sapiens),MIC,E. coli DH5α,12.5 µg/mL
same,MIC against E. coli BL21,E. coli BL21; 5×10^5 CFU/mL,50 µg/mL
same,MIC against P. aeruginosa,Pseudomonas aeruginosa; 5×10^5 CFU/mL,12.5 µg/mL
same,MIC against K. pneumonia,Klebsiella pneumonia; 5×10^5 CFU/mL,12.5 µg/mL
same,MIC against E. cloacae,Enterobacter cloacae; 5×10^5 CFU/mL,12.5 µg/mL
same,MIC against A. hydrophila,Aeromonas hydrophila; 5×10^5 CFU/mL,12.5 µg/mL
same,MIC against C. diversus,Citrobacter diversus; 5×10^5 CFU/mL,25 µg/mL
same,MIC against M. catarrhalis,Moraxella catarrhalis; 5×10^5 CFU/mL,12.5 µg/mL
same,MIC against P. mirabilis,Proteus mirabilis; 5×10^5 CFU/mL,25 µg/mL
same,MIC against P. vulgaris,Proteus vulgaris; 5×10^5 CFU/mL,12.5 µg/mL
same,MIC against S. marcescens,Serratia marcescens; 5×10^5 CFU/mL,25 µg/mL
PRT947 (NIDDCARGPHCLNGGQCMDRIGGYSCRCLPGFAGERCE; listed as Homo sapiens),MIC,E. coli DH5α,12.5 µg/mL
same,MIC,E. coli BL21; [1],50 µg/mL
same,MIC,Pseudomonas aeruginosa; [2],12.5 µg/mL
same,MIC,Klebsiella pneumonia; [3],50 µg/mL
same,MIC,Enterobacter cloacae; [4],12.5 µg/mL
same,MIC,Aeromonas hydrophila; [5],50 µg/mL
same,MIC,Citrobacter diversus; [6],25 µg/mL
same,MIC,Moraxella catarrhalis; [7],12.5 µg/mL
same,MIC,Proteus mirabilis; [8],25 µg/mL
same,MIC,Proteus vulgaris; [9],50 µg/mL
same,MIC,Serratia marcescens; [10],12.5 µg/mL
PRT256 (CHLHARCVSQEGVARCRCLDGFEGDGFSC; listed as Homo sapiens),MIC,E. coli DH5α,25 µg/mL
same,MIC (μg/mL) E. coli BL21,"E. coli BL21; E. coli BL21, 10 h cultivation at 37° C., 5×10^5 CFU/mL",12.5 µg/mL
same,MIC (μg/mL) P. aeruginosa,"Pseudomonas aeruginosa; P. aeruginosa, 10 h cultivation at 37° C., 5×10^5 CFU/mL",25 µg/mL
same,MIC (μg/mL) K. pneumonia,"Klebsiella pneumonia; K. pneumonia, 10 h cultivation at 37° C., 5×10^5 CFU/mL",12.5 µg/mL
same,MIC (μg/mL) E. cloacae,"Enterobacter cloacae; E. cloacae, 10 h cultivation at 37° C., 5×10^5 CFU/mL",25 µg/mL
same,MIC (μg/mL) A. hydrophila,"Aeromonas hydrophila; A. hydrophila, 10 h cultivation at 37° C., 5×10^5 CFU/mL",12.5 µg/mL
same,MIC (μg/mL) C. diversus,"Citrobacter diversus; C. diversus, 10 h cultivation at 37° C., 5×10^5 CFU/mL",25 µg/mL
same,MIC (μg/mL) M. catarrhalis,"Moraxella catarrhalis; M. catarrhalis, 10 h cultivation at 37° C., 5×10^5 CFU/mL",12.5 µg/mL
same,MIC (μg/mL) P. mirabilis,"Proteus mirabilis; P. mirabilis, 10 h cultivation at 37° C., 5×10^5 CFU/mL",25 µg/mL
same,MIC (μg/mL) P. vulgaris,"Proteus vulgaris; P. vulgaris, 10 h cultivation at 37° C., 5×10^5 CFU/mL",12.5 µg/mL
same,MIC (μg/mL) S. marcescens,"Serratia marcescens; S. marcescens, 10 h cultivation at 37° C., 5×10^5 CFU/mL",25 µg/mL
PRT1290 (KCNPCLSNPCKNDGTCNSDPVDFYRCTCPYGFKGQDCD; listed as Homo sapiens),MIC,E. coli DH5α,50 µg/mL
same,MIC against E. coli BL21,"E. coli BL21; E. coli BL21, 5×10^5 CFU/mL",12.5 µg/mL
same,MIC against P. aeruginosa,"Pseudomonas aeruginosa; Pseudomonas aeruginosa, 5×10^5 CFU/mL",50 µg/mL
same,MIC against K. pneumonia,"Klebsiella pneumonia; Klebsiella pneumonia, 5×10^5 CFU/mL",12.5 µg/mL
same,MIC against E. cloacae,"Enterobacter cloacae; Enterobacter cloacae, 5×10^5 CFU/mL",50 µg/mL
same,MIC against A. hydrophila,"Aeromonas hydrophila; Aeromonas hydrophila, 5×10^5 CFU/mL",25 µg/mL
same,MIC against C. diversus,"Citrobacter diversus; Citrobacter diversus, 5×10^5 CFU/mL",12.5 µg/mL
same,MIC against M. catarrhalis,"Moraxella catarrhalis; Moraxella catarrhalis, 5×10^5 CFU/mL",25 µg/mL
same,MIC against P. mirabilis,"Proteus mirabilis; Proteus mirabilis, 5×10^5 CFU/mL",50 µg/mL
same,MIC against P. vulgaris,"Proteus vulgaris; Proteus vulgaris, 5×10^5 CFU/mL",12.5 µg/mL
same,MIC against S. marcescens,"Serratia marcescens; Serratia marcescens, 5×10^5 CFU/mL",12.5 µg/mL
